One data set concerns MRSA (ATCC 33591). In words: Planktonic MIC in biofilm media (MICb). Particulars: TSB with 0.5% NaCl and 0.25% glucose. The class given is cell-based, Staphylococcus aureus.
Data set [1] has as its system methicillin resistant S. aureus (ATCC 33591). In words: MIC, serial broth dilution. The class given is cell-based, Staphylococcus aureus. Particulars: MHB, 18 h, 37° C.
The next data set concerns S. aureus (ATCC 29213). In words: MIC, serial broth dilution. The data set is classed as cell-based, Staphylococcus aureus. Particulars: MHB, 18 h, 37° C. On the technique in general: Broth dilution looks for growth in wells or tubes with falling amounts of substance.
The subject of data set [2] is MRSA (ATCC 33591) biofilm. In words: 24 h preformed mature biofilm (alamar blue, crystal violet). The data set is classed as cell-based, Staphylococcus aureus. The conditions noted are these: 20×MICb: 1c 140 μg/mL, 1d 70 μg/mL, VAN 20 μg/mL. The method, then: (§1) To evaluate potential of designed active peptidomimetics against MRSA biofilms a methodology as used previously was employed with minor modifications [Antimicrob. Agents Chemother., 57:2726-2737, 2013]. Briefly, freshly inoculated MRSA (ATCC 33591) was grown in biofilm growth media (TSB supplemented with 0.5% w/v NaCl and 0.25% w/v glucose) overnight. Next day, the culture was diluted in fresh biofilm growth media to 10^5 CFU/mL. 200 μl of diluted culture was dispensed in wells of a 96-well polystyrene plate for biofilm formation. […] Biofilm cultures were re-incubated at 37° C. for 24 h. After removal of medium, the biofilms were further washed twice with sterile NaCl/Pi buffer and assessed for metabolic activity (alamar blue assay) and biomass quantification (Crystal violet assay).
On the technique in general: Alamar Blue is a resazurin reagent that responds to reducing activity.

Data set [3] has as its system human red blood cells (hRBC). In words: Hemolytic activity. The data set is classed as cell-based. The conditions noted are these: 250 μg/mL, 1 h at 37° C.
The subject of data set [4] is MRSA (ATCC 33591) biofilm. The experiment in a line: Inhibition of biofilm formation (alamar blue, crystal violet). The data set is classed as cell-based, Staphylococcus aureus. Particulars: sub-MICb; for reduction in metabolic activity (alamar blue), biofilm formation: printed as 'reduction up to'. On the procedure: as §1
Data set [5] deals with MRSA. In words: MIC in presence of 25% v/v human serum. The data set is classed as cell-based, Staphylococcus aureus. On the procedure: Following bacterial strains were used in this study: S. aureus (ATCC 29213), methicillin resistant S. aureus (ATCC 33591), Staphylococcus epidermidis (ATCC 12228), methicillin resistant Staphylococcus epidermidis(ATCC 51625), Enterococcus faecalis (ATCC 7080), Escherichia coli (ATCC 11775), and Acinetobacter baumannii (ATCC 19606). Antibacterial activity was evaluated using a modified serial broth dilution method in accordance with Clinical Laboratory Standard Institute guidelines [Methods for dilution antimicrobial susceptibility tests for bacteria that grow aerobically-7th ed. Approved standard M7-A7. Clinical and Laboratory Standards Institute, Wayne, Pa., Biochim. Biophys. Acta 1798:1864-1875, 2010.]. Briefly, the inoculums were prepared from mid-log phase bacterial cultures. Peptidomimetics were incubated with bacterial suspension in Muller Hinton broth media (10^5 CFU/mL) in 96 well microtitre plate. The plates were incubated overnight with agitation (200 rpm) at 37° C. After 18 h, absorbance was measured at 630 nm. Cultures without test peptidomimetics were used as positive control. Un-inoculated Mueller Hinton Broth (MHB) was used as negative control. Tests were carried out in duplicate on at least three different days. […] Further, antibacterial activity of active peptidomimetics 1c and 1d were also evaluated against MRSA in presence of 25% v/v human serum as well as bovine serum.

Data set [6] concerns MRSA. In words: Membrane depolarization with DiSC3(5) dye. The data set is classed as cell-based, Staphylococcus aureus. Particulars: up to the highest concentration tested.

The structures appear in SMILES notation. Values after ≈ are worked out from the molar mass of the structure shown.

Regarding `CCCCCCCCCC(=O)NC(Cc1c[nH]c2ccccc12)C(=O)NC(Cc1c[nH]c2ccccc12)C(=O)NCCCNCCCCNCCCN` (stereo not drawn) [1d], the “MICb, planktonic MIC in biofilm media” value in the data set on MRSA (ATCC 33591) was determined as 3.5 µg/mL. The “MIC MRSA (ATCC 33591)” value in data set [1] worked out at 1.7 µg/mL (≈ 2.33 µM). In the data set on S. aureus (ATCC 29213), the “MIC S. aureus (ATCC 29213)” value is 0.0017 µg/mL (≈ 0.00233 µM). In addition, the “biomass remaining compared to control, 24 h pre-formed biofilm (crystal violet)” value in data set [2] came out at 21.4±9.2%. For the same compound, the “% H, percentage hemolysis of human RBCs” value in data set [3] worked out at 9%. Further, in data set [4], the “% biomass reduction (crystal violet), biofilm formation” value is reported as 28.2±11.1% and the “reduction in metabolic activity (alamar blue), biofilm formation” value was 26.4±3.3%. For the same compound, the “increase in MIC in human serum” value with MRSA [5] turned out to be 8 fold. In addition, the “change in relative fluorescence unit (RFU), membrane depolarization” value in the data set with MRSA [6] was “intermediate changes in fluorescence intensity”.
For the compound `NCCCNCCCCNCCCNC(=O)C(Cc1c[nH]c2ccccc12)NC(=O)C(Cc1c[nH]c2ccccc12)NC(=O)Cc1ccc(C(F)(F)F)cc1` (stereo not drawn) [1c], the “MICb, planktonic MIC in biofilm media” value in the data set on MRSA (ATCC 33591) worked out at 7.1 µg/mL. Besides, in data set [1], the “MIC MRSA (ATCC 33591)” value amounted to 3.5 µg/mL (≈ 4.6 µM). For the same compound, in the data set on S. aureus (ATCC 29213), the “MIC S. aureus (ATCC 29213)” value was determined as 0.0017 µg/mL (≈ 0.00223 µM). Moreover, in data set [2], the “biomass remaining compared to control, 24 h pre-formed biofilm (crystal violet)” value amounted to 24.0±13.4%. Besides, the “% H, percentage hemolysis of human RBCs” value in data set [3] turned out to be 2%. In addition, in data set [4], the “% biomass reduction (crystal violet), biofilm formation” value is given as 19.8±5.6% and the “reduction in metabolic activity (alamar blue), biofilm formation” value came to 33.1±5.7%. In the data set on MRSA [5], the “increase in MIC in human serum” value is 4 fold. In the data set with MRSA [6], the “change in relative fluorescence unit (RFU), membrane depolarization” value was “only marginal changes in RFU”.

These data come from patent US9738684B2, “N-terminally modified linear and branched polyamine conjugated peptidomimetics as antimicrobials agents” (COUNCIL OF SCIENTIFIC & INDUSTRIAL RESEARCH, priority 2015, dated 2017).
